Tested on: CFTR mRNA
Experiment: RT-qPCR analysis of CFTR mRNA levels in CFBE41o− 4.7 ΔF508-CFTR cells
Assay type: cell-based, human
Conditions: 10 μM, 24 h

SMILES: Cc1ccc(NC(=O)C2(c3ccc4c(c3)OC(F)(F)O4)CC2)nc1-c1cccc(C(=O)NCCCCCCCCCNC(=O)CNCc2ccc(-c3c4ncn(CC5(O)CCN(C(=O)C[C@@H](C)c6ccccc6)CC5)c(=O)c4nn3C)cc2)c1 [MS6869, (R)-3-(6-(1-(2,2-difluorobenzo[d][1,3]dioxol-5-yl)cyclopropane-1-carboxamido)-3-methylpyridin-2-yl)-N-(9-(2-((4-(6-((4-hydroxy-1-(3-phenylbutanoyl)piperidin-4-yl)methyl)-2-methyl-7-oxo-6,7-dihydro-2H-pyrazolo[4,3-d]pyrimidin-3-yl)benzyl)amino)acetamido)nonyl)benzamide]
- mRNA levels of CFTR: do not affect the mRNA levels of CFTR

Source: US20260325653A1, “HETEROBIFUNCTIONAL SMALL MOLECULES THAT DEUBIQUITINYLATE AND STABILIZE TARGET PROTEINS BY RECRUITING USP7” (ICAHN SCHOOL OF MEDICINE AT MOUNT SINAI, priority 2023, published 2026)
